Laboratory results: article PMC12097015, “Development of MDM2‐Targeting PROTAC for Advancing Bone Regeneration” (Advanced Science, 2025)

Key:
MDM2 [1] = biological target: T1, MDM2 (Homo sapiens, UniProt Q00987); assay: Microscale thermophoresis (MST) binding assay; parameters: made in house; host or cells: E. coli BL21 (DE3); conditions: His-Tag MDM2, n = 3, read-out: dissociation constant (Kd)
Target sequence in this assay (Q00987 whole entry, species assumed): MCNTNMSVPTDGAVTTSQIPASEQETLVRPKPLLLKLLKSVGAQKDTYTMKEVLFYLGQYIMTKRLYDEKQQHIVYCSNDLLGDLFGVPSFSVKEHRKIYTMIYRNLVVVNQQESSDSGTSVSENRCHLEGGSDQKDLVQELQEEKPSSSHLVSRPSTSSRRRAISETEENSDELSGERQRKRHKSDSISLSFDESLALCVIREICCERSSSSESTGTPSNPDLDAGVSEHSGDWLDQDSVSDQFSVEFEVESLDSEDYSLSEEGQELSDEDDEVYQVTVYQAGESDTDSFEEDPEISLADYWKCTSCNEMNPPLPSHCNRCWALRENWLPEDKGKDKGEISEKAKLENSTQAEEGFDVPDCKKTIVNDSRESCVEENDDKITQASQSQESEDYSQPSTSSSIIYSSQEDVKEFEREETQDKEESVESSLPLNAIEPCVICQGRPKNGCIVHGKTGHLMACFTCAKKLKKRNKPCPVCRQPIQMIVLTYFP
Method: E. coli BL21 (DE3) competent cells transformed with pSPEL870 were used to express MDM2 protein.^[ [27] ^] The recombinant strain was cultured in 500 mL 2XYT at 37 °C until the optical density (OD600 ) reached 0.5. Protein expression was induced by adding 0.2 mM isopropyl β‐D‐1‐thiogalactopyranoside (IPTG; Bioshop, Canada) at 20 °C overnight. […] The protein was purified using Ni‐NTA resin (Qiagen, Germany), according to the manufacturer's protocol. The purified protein was buffer exchanged with phosphate‐buffered saline (PBS, pH 7.4) using a centrifugal filter unit (MWCO: 10 K; Merck Millipore, USA). The protein was stored at –20 °C in PBS with 20% glycerol and 1 mM dithiothreitol (DTT).
The His‐Tag MDM2 protein was labeled using a His‐Tag Labeling Kit RED‐tris‐NTA second Generation (NanoTemper, MO‐L018) according to the manufacturer's instructions. […] The final mixtures were transferred to capillaries (NanoTemper, MO‐K022) and the samples were measured using a Monolith NT.115Pico (NanoTemper) instrument (auto LED power; medium MST power). […] The signals were represented as normalized changes in fluorescence (Fnorm ) upon ligand binding. Baseline‐corrected normalized fluorescence (DFnorm ) was obtained from Fnorm values using MO Affinity Analysis, and the dissociation constants (Kd ) were determined by curve fitting (variable slope model) using GraphPad Prism 10.

MDM2 [2] = biological target: T1, MDM2; assay: Immunoprecipitation of MDM2 ubiquitination in HeLa cells overexpressing MDM2 and HA-tagged ubiquitin; assay type: cell-based; parameters: host or cells: HeLa; conditions: 10 µM, within 60 min
Method: HeLa cells were cultured in DMEM (Welgene, LM001‐05) supplemented with 10% FBS (Welgene, S001‐07). For transient transfection, the cells were seeded at ≈70% confluence. The following day, transfection was performed using Lipofectamine 3000 (Invitrogen, L3000015) for 24 h according to the manufacturer's protocol. The cells were transfected with 100 ng of EGFP‐MDM2 per well in the 96‐well plate and were transfected with 2 µg of MDM2 WT and 2 µg of HA‐ubiquitin, total 4 µg per well in the 6‐well plate.
Hela cells (passage. 5) 7 × 10^5 cells well^−1 were seeded in a 6‐well plate and allowed to adhere overnight (o/n). The next day, WT MDM2 and HA‐ubiquitin plasmid transfection was performed using Lipofectamine 3000 for 24 h, according to the manufacturer's instructions. After transfection for 24 h, cells were treated with CL144 for different time intervals, including 15, 30, and 60 min. After drug treatment, the cells were lysed using immunoprecipitation (IP) lysis buffer (ThermoFisher, 87788) supplemented with a protease inhibitor cocktail (PIC). The cell lysates were harvested for subsequent experiments. The cell lysate was incubated with a HA‐tag primary antibody (1′Ab) at 4 °C overnight to capture the target protein complexes. The next day, the antibody–protein complexes were bound to the beads for 1 h. The beads were washed three times with IP lysis buffer to remove nonspecific binding. […]
Target sequence in this assay (Q00987 whole entry): as the sequence (Q00987 whole entry, species assumed) above

hBMSCs = assay: Bulk RNA-seq of cultured hBMSCs; assay type: cell-based, human; conditions: CL144 versus Nutlin‐3
From the text: ‐Sample Preparation: In accordance with the manufacturer's instructions, total RNA was extracted using Trizol from hBMSCs treated with Nutlin‐3 or CL144 as well as from control cells. Utilizing an Agilent Bioanalyzer RNA ScreenTape kit (Agilent, 5067–5576), the integrity of the RNA (RIN) was verified. All samples with RIN value > 8.0 were used for sequencing.
‐Library Construction: RNA‐seq libraries were constructed according to the manufacturer's instructions for the SRSLY Library Prep kit, which were provided by Claretbio (CBS‐K155B‐24). […] This work fragmented and enriched the mRNA using oligo (dT). After ligating the cDNA fragments to adapters, PCR amplification was performed.
‐Sequencing: The libraries were performed to sequencing on the Nextseq2000 (Illumina) platform, utilizing the SRSLY RNA NanoPlus kit to generate 100 bp paired‐end reads.
‐Data Analysis: FastQC was used to trim the adaptor sequences and remove low‐quality reads from the raw sequencing data (FASTQ files). After that, Hisat2 v2.2.1 was used to align these clean reads with the Human Genome Reference GRCh38. DESeq2 was used for differential expression analysis, while g: Profiler was used for GO enrichment analysis.

MDM2 [3] = biological target: T1, MDM2; assay: MDM2 degradation by western blot in hBMSCs; assay type: cell-based; parameters: endogenous in cells; host or cells: hBMSCs
Method: Human Bone Marrow‐derived Mesenchymal Stem Cells (hBMSCs) were provided by Professor Lee's laboratory, and cells from passages four to nine were used for all experiments. hBMSCs were cultured in alpha‐minimum essential medium (Welgene, LM008‐01) supplemented with 10% Fetal Bovine Serum (FBS) (Gibco, US origin, 16000–044) and 1% penicillin/streptomycin (Gibco, 15140‐122).
After discarding the medium and washing the cells twice with cold dPBS, the cells were collected using a scraper and lysed using RIPA buffer (GenDEPOT, R4200‐010) containing protease and phosphatase inhibitors (GenDEPOT, P3200‐001). The collected samples were centrifuged at 13 200 rpm for 10 min at 4 °C, and the supernatant containing total protein was collected. SDS‐PAGE gels (10–12%) were prepared, and protein samples were mixed with 5X loading buffer containing reducing agent (Biosesang, S2002) and heated at 98 °C for 5 min. Equal amounts of protein samples were loaded onto a gel, separated by electrophoresis, and transferred onto nitrocellulose membranes using a Dry Transfer Stacks Kit (Invitrogen, IB23001). The membrane was blocked with 5% nonfat milk in 1X TBST for 1 h at room temperature to prevent nonspecific binding. The membranes were incubated with primary antibodies specific to the target proteins overnight at 4 °C with gentle shaking. The next day, the membrane was washed three times with TBST at 10 min intervals to remove unbound primary antibodies. The membranes were incubated with secondary antibodies (anti‐rabbit and anti‐mouse) conjugated to horseradish peroxidase (HRP) for 1 h at room temperature. The membrane was washed three times with 1X TBST at 10 min intervals to remove unbound secondary antibodies. After washing, a chemiluminescent substrate (ECL, Millipore, WBULS0100) was applied to the membrane to visualize protein bands using a chemiluminescence detector (for the antibodies used, see Table S2, Supporting Information).
The DC50 and Dmax values were calculated by western blot band quantification according to compound concentrations. The quantification value was normalized to the value relative to the untreated group and calculated using the sigmoidal dose‐response (variable slope) equation in GraphPad Prism.
Target sequence in this assay (Q00987 whole entry): as the sequence (Q00987 whole entry, species assumed) above

RUNX2, OCN, OPN = assay: qPCR of osteogenic differentiation marker genes in hBMSCs; assay type: cell-based, human
Method: Total RNA was extracted from hBMSCs treated with Nutlin‐3 or CL144, as well as from control cells, using Trizol (Invitrogen, 15596026), according to the manufacturer's instructions. cDNA was synthesized using TOPscript RT DryMIX (Enzynomics, RT200). Human gene‐specific primer sequences were used. (Used primer sequences see Table S2, Supporting Information). qPCR was conducted using the SYBR Green qPCR Master Mix (Applied biosystems, 4 309 155). Relative gene expression levels were calculated using the ΔΔCt method with GAPDH as the internal control for normalization.

COc1ccc(C2=N[C@H](c3ccc(Cl)cc3)[C@H](c3ccc(Cl)cc3)N2C(=O)N2CCN(CC(=O)NCCCCCCCCOc3cccc4c3C(=O)N(C3CCC(=O)NC3=O)C4=O)C(=O)C2)c(OC(C)C)c1 (stereo in doubt) [CL144]
Kd (MDM2 [1]): 1120 nM
increase of ubiquitination level of MDM2 (MDM2 [2]): 2.65 fold
COL8A2 expression (log2FC) (hBMSCs): 6.02
COL11A1 expression (log2FC) (hBMSCs): 6.23
MDM2 degradation, dose-dependent effect (MDM2 [3]; 0.1 µM to 10 µM): robust MDM2 degradation
MDM2 degradation (MDM2 [3]; 10 µM, neo-substrate experiment): ≈ 70%
decrease in MDM2 levels compared to the basal level (MDM2 [3]; 10 μΜ for 1 h): over 80%
maximal degradation concentration (Dmax) (MDM2 [3]; quantified western blot, 1 nM to 50 µM, n = 2): 1 μΜ
DC50 (MDM2 [3]; quantified western blot, 1 nM to 50 µM, n = 2, read-out: half‐maximal degradation concentration (DC50)): 90 nM
OPN mRNA level (RUNX2, OCN, OPN; 10 μΜ): increased
expression levels of RUNX2 and OCN (mRNA) compared to Nutlin‐3 (RUNX2, OCN, OPN; same concentrations): significantly increased
